pIC50: −log10 of the molar value. Where two headings read alike, the source gives them in different places.
What was measured:
[1] = tested on: TNF-α; test: LPS-induced TNF-α release from hPBMCs (ELISA); assay type: cell-based; conditions: Homo sapiens
Procedure: Cytokine production by lipopolysaccharides (LPS) in hPBMCs (human peripheral blood mononuclear cells) was measured as in reference, Physiol. Res. 2003, 52, 593-598, the disclosure of which is incorporated by reference for the teaching of the assay. Blood was collected from healthy donors into Potassium EDTA vacutainer tubes (BID vacutainer). The PBMC were isolated using gradient centrifugation in Histopaque-1077 solution (Sigma). Isolated PBMC were suspended in RPMI 1640 (Rosewell Park Memorial Institute) culture medium (Sigma-Aldrich Fine Chemicals, USA) containing 10% fetal bovine serum (FBS) (JRH, USA), 100 U/mL penicillin (Sigma Chemical Co. St Louis, Mo., USA) and 100 μg/mL streptomycin (Sigma Chemical Co. St Louis, Mo.). The cell concentration was adjusted to 1×10^6 cells/mL. The viability as determined by trypan blue dye exclusion was uniform Ly≧98%. The cell suspension (100 μL) was added to the wells of a 96-well culture plate. Following cell plating, 79 μL of the culture medium and 1 μL of various concentrations of test compounds (compounds of formula 1) (final concentration 0.001, 0.003, 0.005, 0.01, 0.025, 0.03, 0.05, 0.1, 0.25, 0.3 and 1 μM) dissolved in DMSO (dimethyl sulfoxide, Sigma, Mo., USA) were added to the cells. The final concentration of DMSO was adjusted to 0.5%. The vehicle (0.5% DMSO) was used as control. […] The plates were incubated for 30 minutes at 37° C. in an atmosphere of 5% CO2. Finally, 20 μL (10 μg/mL) per well of LPS, (Escherchia coli 0127:B8, Sigma Chemical Co., St. Louis, Mo.) was added to the wells of the incubated plates, for a final concentration of 1 μg/mL. The plates were incubated at 37° C. for 5 hours in an atmosphere of 5% CO2. […] Supernatants were harvested and assayed for TNF-α, IL-1β, IL-6 and IL-8 by ELISA as described by the manufacturer. (OptiEIA ELISA sets, BD Biosciences, Pharmingen). The 50% inhibitory concentration (IC50) values were calculated by a nonlinear regression method using GraphPad software (Prism 3.03).

[2] = tested on: IL-6; test: Spontaneous IL-6 release from synovial cells of RA patients; assay type: cell-based; conditions: Homo sapiens, Synovial cell, freshly isolated synovial cells from RA patients, 16 hours
Procedure: Cytokine production in synovial cells obtained from rheumatoid arthritis patients undergoing knee replacement surgery, was measured as per the method described in reference, Lancet, 1989, 29, 244-247, the disclosure of which is incorporated herein by reference for the teaching of the assay. The synovial membrane tissue was digested by incubating at 37° C. for 3 hours in an atmosphere of 5% CO2, in Roswell Park Memorial Institute (RPMI) medium containing penicillin-G (100 U/mL), streptomycin (100 μg/mL), amphotericin B (50 ng/mL) (GIBCO), 1.33 mg/mL collagenase Type I (Worthington Biochemical Corporation, New Jersey, USA), 0.5 μg/mL DNAse Type I (SIGMA) and 8.33 U/mL heparin (Biological E. Limited, India). The digested tissue was then filtered through a membrane (mesh size 70 micron) (SIGMA), the cells were washed 3 times and suspended in complete medium (RPMI supplemented with 5% FCS and 5% human serum). The cell concentration was adjusted to 1×10^6 cells/mL. The viability as determined by trypan blue dye exclusion was uniform Ly≧98%. The cell suspension (100 μL) was added to the wells of a 96-well culture plate. […] The final concentration of DMSO was adjusted to 0.5%. The vehicle (0.5° A) DMSO) was used as control. SB 203580 (20 μM) was used as a standard. The plates were incubated for 16 hours at 37° C. in 5% CO2 atmosphere. […]

pIC50 ([1]; LPS-induced release from hPBMCs (Table 1A), read-out: IC50 TNF-α): 6.00
pIC50 ([1]; LPS-stimulated hPBMCs, 5 hours, read-out: Activity (TNF-α) IC50): 6.00
pIC50 [2]: 5.00
SMILES: CN1CC[C@@H](c2c(O)cc(O)c3c(=O)cc(-c4ccc(C(F)(F)F)cc4Cl)oc23)[C@@H]1CO.Cl [Compound of example 3, (+)-trans-2-(2-Chloro-4-trifluoromethyl-phenyl)-5,7-dihydroxy-8-(2-hydroxymethyl-1-methyl-pyrrolidin-3-yl)-chromen-4-one hydrochloride]
